Assay results: patent US7524669B2 (priority 2002, dated 2009)
Like-named read-outs stand apart in the source and are kept apart here.

Key:
[1] = tested on: S. cerevisiae HD9 (fps1Δ acr3Δ ycf1Δ); type: cell-based, Saccharomyces cerevisiae; conditions: strain HD9 (FPS1 deleted), 5 μM metalloid, FIG. 4
[2] = tested on: S. cerevisiae HD9 (fps1Δ acr3Δ ycf1Δ); conditions: HD9 vs MG102 (acr3Δ ycf1Δ), FIG. 3
AQP9 [3] = target: T1, AQP9 (Rattus norvegicus, UniProt P56627); type: cell-based, Saccharomyces cerevisiae
T1 sequence (P56627 whole entry): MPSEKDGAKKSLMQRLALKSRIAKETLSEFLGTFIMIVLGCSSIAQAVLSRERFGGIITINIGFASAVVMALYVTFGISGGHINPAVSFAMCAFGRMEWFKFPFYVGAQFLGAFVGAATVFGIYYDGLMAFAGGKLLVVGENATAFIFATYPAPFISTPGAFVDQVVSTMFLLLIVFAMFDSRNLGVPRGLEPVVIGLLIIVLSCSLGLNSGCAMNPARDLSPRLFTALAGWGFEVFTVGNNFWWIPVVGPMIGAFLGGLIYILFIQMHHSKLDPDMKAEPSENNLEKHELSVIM

AQP9 [4] = target: T1, AQP9; conditions: for effect of AQP9 expression on resistance/sensitivity of strain HD9: HD9 pAQP9, galactose induced, FIG. 3
AQP7 = conditions: HD9 pAQP7
[5] = tested on: S. cerevisiae strains W303, W303 pYCF1, MG100, MG100 pYCF1; experiment: Arsenite transport (accumulation) assay in intact cells, Example 1; type: cell-based, Saccharomyces cerevisiae; conditions: FIG. 2
[6] = tested on: S. cerevisiae strains W303, W303 pYCF1, MG100, MG100 pYCF1; experiment: Metal ion resistance assay (growth in liquid SD medium), Example 1

O.O.O.O=C([O-])[C@H]([O-])[C@@H]([O-])C(=O)[O-].O=C([O-])[C@H]([O-])[C@@H]([O-])C(=O)[O-].[K+].[K+].[Sb+3].[Sb+3] [antimonite, potassium antimonyl tartrate] was tested, and the “transport of radioactive metalloid into cells” value (shortened to “transport”) [1] was “low rates of transport”, the “resistance of strain HD9 compared to strain MG102 (growth)” value [2] was “relatively resistant” and the “transport” value (AQP9 [3]) was “facilitates transport”. For the same compound, the “effect of AQP9 expression on resistance/sensitivity of strain HD9” value (AQP9 [4]) was “reversed” and the “effect of AQP7 on a plasmid on resistance of strain HD9” value (AQP7) was “no effect on resistance”.

O=[As]O [arsenite, sodium arsenite] was tested, and the “transport” value [1] was “reduced”, the “resistance of strain HD9 compared to strain MG102 (growth)” value [2] was “resistant” and the “transport” value (AQP9 [3]; HD9 expressing AQP9, 5 μM metalloid, FIG. 4) was “accumulated more ^73As(OH)3 than the parental strain MG102”. The “accumulation of 73As(OH)3 in intact cells” value (from here on “accumulation”) ([5]; strain MG100, 1.0 μM arsenite) was “accumulates more ^73As(III) than the wild type”, the “accumulation” value ([5]; strain MG100 pYCF1, 1.0 μM arsenite) was “accumulate much higher amounts of arsenite” and the “accumulation” value ([5]; strain W303, 1.0 μM arsenite) was “accumulate the least arsenic”. For the same compound, the “accumulation” value ([5]; strain W303 pYCF1, 1.0 μM arsenite) was “increases the amount of radioactive arsenite accumulated”, the “arsenite sensitivity (growth)” value ([6]; strain MG100 (ACR3Δ), FIG. 1) was “extremely arsenic sensitive” and the “arsenite resistance (growth)” value ([6]; strain MG100 pYCF1, FIG. 1) was “restores arsenite resistance”. The “arsenite resistance (growth)” value ([6]; strain W303 (wild type ACR3), FIG. 1) was “resistant to higher concentrations”, the “arsenite resistance (growth)” value ([6]; strain W303 pYCF1, Ycf1p expressed on a plasmid, FIG. 1) was “no effect on resistance” and the “effect of AQP9 expression on resistance/sensitivity of strain HD9” value (AQP9 [4]) was “reversed”. For the same compound, the “effect of AQP7 on a plasmid on resistance of strain HD9” value (AQP7) was “no effect on resistance”.

With [Cl][Cd][Cl] [cadmium, cadmium chloride] the “effect of AQP9 expression on resistance/sensitivity of strain HD9” value (AQP9 [4]) was “no effect on sensitivity”.

In the case of OCC(O)CO [glycerol], the “inhibition of 73As(OH)3 uptake by glycerol” value (AQP9 [3]) is reported as “reduced the uptake” and the “effect of glycerol on AQP9-related arsenite sensitivity in growth assays” value (AQP9 [4]) is reported as “small reversal of the AQP9-related arsenite sensitivity”.

For sodium arsenate, the “effect of AQP9 expression on resistance/sensitivity of strain HD9” value (AQP9 [4]) was “no effect on sensitivity”.
